What was measured:
[1] = test system: H1650 lung cancer cells; assay: Cell viability assay (MTT, IC50 determination); format: cell-based; conditions: Homo sapiens, NCI-H1650, 48 hours after drug treatment, MTT
Procedure: (§1) 89(22): p. […] H1650 lung cancer cells were plated at 150,000 cells per well in a 12 well plate. Twenty-four hours after plating, cells were treated as described with increasing concentrations of drug and control. Forty-eight hours after drug treatment, cells were treated with 100 μL of 3-(4,5-Dimethylthiazol-2-yl)-2,5-diphenyltetrazolium bromide (MTT) and incubated for 2 hours at 37 C. The MTT solution was subsequently replaced with 300 μL of n-propyl alcohol and re-aliquoted to a 96 well plates. Spectrophotometric analysis of each solution was performed using a 96 well plate reader at 600 nm in triplicate.

[2] = test system: naïve CD4 T cells; assay: Treg induction from naïve CD4 T cells (Foxp3 expression); format: cell-based
Procedure: Example 30 has been tested for its ability to induce Treg from naïve CD4 T cells. […] Fifty thousand CD4 naïve cells (CD62Lhi, CD25 low, CD4 positive) were incubated with 2 ng/mL TGFβ, 1 ug/mL anti-CD3, 100 ng/mL IL-2, 50000 APCs per well and the compounds 10 μM, 5 μM and 2.5 μM concentrations. The cells were incubated for 3 days and then stained for CD4 and Foxp3 expression. Results were expressed as fold increase over the % induced in control (DMSO) wells (typically 20-25% Foxp3+). AKTi, a small molecule AKT inhibitor, was used as a positive control; it induced about a 4-fold increase. […] The effects of Example 30 on iTreg induction are amplified as the TGFβ concentration decreases.

[3] = test system: A549luc cells; assay: Colony formation (clonogenic) assay, A549luc; format: cell-based; conditions: 7 days
Procedure: (§2) Protocol for clonogenic assay follows Sangodkar et al. J Clin Invest 2012; 122:2637-51.
(§3) Cell culture and staining: For both A549luc and H292 cells, 500 cells were seeded into each well of a 6-well plate and allowed to attach for 24 hours before drug treatment. The following day, cells were treated with either the appropriate dose of drug or an equivalent volume of DMSO (two replicates were treated for each condition). For each condition, depleted media was replaced with fresh media containing the equivalent drug dose four days after initial treatment. Cells were harvested either 7 (A549luc) or 8 (H292) days after initial treatment. Briefly, media was aspirated from each well and the cells were washed twice with ice-cold PBS, then plates were allowed to dry at room temperature for 4 hours. Cells were fixed for one hour in a fixing solution consisting of 10% methanol and 10% glacial acetic acid in distilled water, then stained overnight in 1% (w/v) crystal violet dissolved in methanol. The next day, staining solution was aspirated from the wells and plates were washed gently with distilled water to remove excess stain before colony counting. Colonies were imaged on a ChemiDoc XRS+ (Bio-Rad) and images were exported as 8-bit TIFF files. Colonies were counted using the Colony Counter plugin in ImageJ, with colony size defined as between 4 and 400 square pixels, and minimum circularity set at 0.6. Duplicate wells were averaged to obtain a single value for each condition. Results (number of colonies) for A549luc cells are shown in Table 2 and results (number of colonies) for H292 cells are shown in Table 3: […]

[4] = test system: H292 cells; assay: Colony formation (clonogenic) assay, H292; format: cell-based; conditions: 8 days
Procedure: as §2, §3

[5] = test system: EGFR-L858R/CCSP mice; assay: In vivo lung cancer model; conditions: i.p. 100 mg/kg every other day, two week treatment period, MRI; DMSO control 20% increase
Procedure: The in vivo lung cancer model is described in Politi et al., Genes Dev. Jun. 1, 2006 20: 1496-1510. EGFR-L858R/CCSP mice were fed doxycycline-impregnanted food pellets to induce tumor formation. After 8-12 weeks, mice were imaged in a Bruker 4.7T Biospec scanner to confirm lung nodule development. After tumor confirmation, the compound of Example 30 was prepared in DMSO (Sigma) and administered i.p. at 100 mg/kg every other day for two weeks. After treatment, the mice were re-imaged by MRI, and pre-treatment and post-treatment lung volumes were calculated by visible lung opacity present in each axial image using Osirix 4.1.1. DMSO control animals show a 20% increase in tumor volume over two week treatment period. Animals treated with the compound of Example 30 show a 60% decrease in tumor volume over two week treatment period.

[6] = test system: alloreactive T cells; assay: Suppression assay using induced Tregs; format: cell-based
[7] = test system: BALB/c hearts transplanted into fully allogeneic B6 recipients; assay: Heart allograft survival; format: in vivo, mice; conditions: 100 mg/kg i.p., n=4, p<0.05 vs control; untreated rejected by day 8
Procedure: To test for a clinically relevant in vivo effect, BALB/c hearts were transplanted into fully allogeneic B6 recipients. While untreated animals rejected their grafts by day 8 n=4, the grafts in the mice treated with 100 mg/kg i.p. of Example 30 lasted 18 days n=4, p<0.05 vs control, a statistically and clinically significant effect.

[8] = Cell viability assay (MTT, IC50 determination); format: cell-based; conditions: human, H1650 lung cancer cells
Procedure: as §1

| IC50 [1] | SMILES | number of colonies ([3]; 5 μM) | number of colonies ([3]; 7.5 μM) | number of colonies ([3]; 10 μM) | number of colonies ([4]; 5 μM) | number of colonies ([4]; 7.5 μM) | number of colonies ([4]; 10 μM) | also measured |
| --- | --- | --- | --- | --- | --- | --- | --- | --- |
| 20 µM | O=S(=O)(NCCN1c2ccccc2Sc2ccc(Cl)cc21)c1ccc(Cl)cc1 [Example 27, 4-chloro-N-(2-(2-chloro-10H-phenothiazin-10-yl)ethyl)benzenesulfonamide] |  |  |  |  |  |  | fold increase in iTreg over control (DMSO) wells ([2]; at 5 μM, 3 days, 2 ng/mL TGFβ): 2 fold |
|  | O=S(=O)(NCCCN1c2ccccc2CCc2ccc(Cl)cc21)c1cnc(Cl)c(Br)c1 [Example 63, 5-Bromo-6-chloro-N-(3-(3-chloro-10,11-dihydro-5H-dibenzo[b,f]azepin-5-yl)propyl)pyridine-3-sulfonamide] |  |  |  |  |  |  | viability at 48 h, 20 µM ([8]; @ 20 μM): 65% |
| ~15 µM | O=S(=O)(NC[C@H](O)CN1c2ccccc2CCc2ccccc21)c1ccc(OC(F)(F)F)cc1 [Example 75, (R)—N-(3-(10,11-dihydro-5H-dibenzo[b,f]azepin-5-yl)-2-hydroxypropyl)-4-(trifluoromethoxy)benzenesulfonamide] | 133.5 | 105 | 63.5 | 109.5 | 80 | 47 |  |
|  | O=S(=O)(NCCCN1c2ccccc2CCc2ccccc21)c1cccnc1 [Example 89] |  |  |  |  |  |  | viability at 48 h, 40 µM ([8]; @ 40 μM): 50% |
|  | O=C(CCCN1CCC(O)(c2ccc(Cl)cc2)CC1)c1ccc(F)cc1 [Haloperidol, reference compound] |  |  |  |  |  |  | fold increase in iTreg (Foxp3+) over control (DMSO) wells ([2]; control compounds, concentration not given, 3 days, 2 ng/mL TGFβ): did not induce a statistically significant increase |

| SMILES | IC50 [1] | number of colonies ([3]; 5 μM) | number of colonies ([3]; 7.5 μM) | number of colonies ([3]; 10 μM) | number of colonies ([4]; 5 μM) | number of colonies ([4]; 7.5 μM) | number of colonies ([4]; 10 μM) | also measured |
| --- | --- | --- | --- | --- | --- | --- | --- | --- |
| O=S(=O)(NCCCN1c2ccccc2CCc2ccc(Cl)cc21)c1ccc(OC(F)(F)F)cc1 [Example 30, N-(3-(3-chloro-10,11-dihydro-5H-dibenzo[b,f]azepin-5-yl)propyl)-4-(trifluoromethoxy)benzenesulfonamide] | 12.6 µM | 116 | 111.5 | 67.5 | 95 | 74.5 | 61 | decrease in tumor volume [5]: 60%; fold increase in iTreg over control (DMSO) wells ([2]; at 2.5 μM, 3 days, 2 ng/mL TGFβ): greater than 2 fold; upregulation of Foxp3 ([2]; naïve polyclonal T cells treated with TGFβ and TCR transgenic T cells stimulated in vivo during costimulatory blockade): facilitated upregulation of Foxp3; suppressive capacity of iTreg induced with or without compound (% inhibition of maximal proliferation) [6]: equivalent suppressive capacity; heart graft survival [7]: 18 days |

From patent US9540358B2, “Tricyclic compounds as anticancer agents” (ICAHN SCHOOL OF MEDICINE AT MOUNT SINAI, priority 2011, dated 2017)
